Molecules are shown by their SMILES. ± gives the expanded uncertainty stated by the source.

The values that follow come from the NIST ThermoML archive (doi:10.1016/j.jct.2018.09.003).

The nature of this data set: activity coefficient (dimensionless); of the first substance listed, at infinite dilution; xn = mol fraction of the nth substance listed. As to conditions: 101.33 kPa, Liquid, Chromatography, x1 = 0.

Consider `CC(C)CO` [2-methyl-1-propanol] + CCCCCCCCn1cc[n+](C)c1C.F[B-](F)(F)F, for which the activity coefficient (313.15 K) came to 2.66 ± 0.28; the activity coefficient (323.15 K) was 2.54 ± 0.27; the activity coefficient (333.15 K) was found to be 2.42 ± 0.25; the activity coefficient (343.15 K) worked out at 2.3 ± 0.24; the activity coefficient (353.15 K) was 2.19 ± 0.23.

On to `CCO` [ethanol] + CCCCCCCCn1cc[n+](C)c1C.F[B-](F)(F)F, for which the activity coefficient by setting is: (313.15 K) 2.12 ± 0.22; (323.15 K) 1.96 ± 0.21; (333.15 K) 1.82 ± 0.19; (343.15 K) 1.67 ± 0.17; (353.15 K) 1.54 ± 0.16.

On to `CCCCCCCC` [octane] + CCCCCCCCn1cc[n+](C)c1C.F[B-](F)(F)F, for which the activity coefficient stood at 33 ± 3.5 (313.15 K); 32.5 ± 3.4 (323.15 K); 32.2 ± 3.4 (333.15 K); 31.8 ± 3.3 (343.15 K); 31.3 ± 3.3 (353.15 K).

Consider `c1ccccc1` [benzene] + CCCCCCCCn1cc[n+](C)c1C.F[B-](F)(F)F, for which the activity coefficient came out at 2.04 ± 0.21 (313.15 K); 2.07 ± 0.22 (323.15 K); 2.1 ± 0.22 (333.15 K); 2.12 ± 0.22 (343.15 K); 2.15 ± 0.23 (353.15 K).

`CC#N` [acetonitrile] + CCCCCCCCn1cc[n+](C)c1C.F[B-](F)(F)F: the activity coefficient by setting is: (313.15 K) 1.01 ± 0.1; (323.15 K) 1.02 ± 0.1; (333.15 K) 1.04 ± 0.11; (343.15 K) 1.05 ± 0.11; (353.15 K) 1.07 ± 0.11.

Regarding `Cc1ccccc1C` [1,2-dimethylbenzene] + CCCCCCCCn1cc[n+](C)c1C.F[B-](F)(F)F, the activity coefficient by setting is: (313.15 K) 3.5 ± 0.37; (323.15 K) 3.58 ± 0.38; (333.15 K) 3.7 ± 0.39; (343.15 K) 3.82 ± 0.4; (353.15 K) 3.87 ± 0.41.

On to `CC(C)O` [propan-2-ol] + CCCCCCCCn1cc[n+](C)c1C.F[B-](F)(F)F, for which the activity coefficient (313.15 K) was 2.5 ± 0.26; the activity coefficient (323.15 K) came to 2.35 ± 0.25; the activity coefficient (333.15 K) was found to be 2.2 ± 0.23; the activity coefficient (343.15 K) turned out to be 2.07 ± 0.22; the activity coefficient (353.15 K) came to 1.93 ± 0.2.

`CC(C)CC(C)(C)C` [2,2,4-trimethylpentane] + CCCCCCCCn1cc[n+](C)c1C.F[B-](F)(F)F: the activity coefficient amounted to 29.6 ± 3.1 (313.15 K); 28.8 ± 3 (323.15 K); 27.9 ± 2.9 (333.15 K); 26.9 ± 2.8 (343.15 K); 26.1 ± 2.8 (353.15 K).

On to `ClC(Cl)Cl` [trichloromethane] + CCCCCCCCn1cc[n+](C)c1C.F[B-](F)(F)F, for which the activity coefficient runs as follows: (313.15 K) 1.04 ± 0.11; (323.15 K) 1.06 ± 0.11; (333.15 K) 1.07 ± 0.11; (343.15 K) 1.08 ± 0.11; (353.15 K) 1.09 ± 0.11.

For `CCCCCCCCC` [nonane] + CCCCCCCCn1cc[n+](C)c1C.F[B-](F)(F)F, the activity coefficient runs as follows: (313.15 K) 42.2 ± 4.4; (323.15 K) 41.1 ± 4.3; (333.15 K) 39.6 ± 4.2; (343.15 K) 38.4 ± 4; (353.15 K) 37.1 ± 3.9.

Take `CCCCCCCCCC` [decane] + CCCCCCCCn1cc[n+](C)c1C.F[B-](F)(F)F: the activity coefficient (313.15 K) came to 55.2 ± 5.8; the activity coefficient (323.15 K) worked out at 54.2 ± 5.7; the activity coefficient (333.15 K) was found to be 52.9 ± 5.6; the activity coefficient (343.15 K) amounted to 51.5 ± 5.4; the activity coefficient (353.15 K) stood at 50.5 ± 5.3.

For the molecule `CCCCCC` [hexane] + CCCCCCCCn1cc[n+](C)c1C.F[B-](F)(F)F, the activity coefficient is 20 ± 2.1 (313.15 K); 19.8 ± 2.1 (323.15 K); 19.2 ± 2 (333.15 K); 18.7 ± 2 (343.15 K); 18.1 ± 1.9 (353.15 K).

With `C1COCCO1` [1,4-dioxane] + CCCCCCCCn1cc[n+](C)c1C.F[B-](F)(F)F, the activity coefficient runs as follows: (313.15 K) 1.67 ± 0.17; (323.15 K) 1.72 ± 0.18; (333.15 K) 1.77 ± 0.18; (343.15 K) 1.81 ± 0.19; (353.15 K) 1.86 ± 0.19.

As to `CCCCO` [butan-1-ol] + CCCCCCCCn1cc[n+](C)c1C.F[B-](F)(F)F, the activity coefficient runs as follows: (313.15 K) 2.79 ± 0.29; (323.15 K) 2.64 ± 0.28; (333.15 K) 2.52 ± 0.26; (343.15 K) 2.4 ± 0.25; (353.15 K) 2.28 ± 0.24.

Regarding `Cc1ccc(C)cc1` [1,4-dimethylbenzene] + CCCCCCCCn1cc[n+](C)c1C.F[B-](F)(F)F, the activity coefficient reads like this: (313.15 K) 4.06 ± 0.43; (323.15 K) 4.12 ± 0.43; (333.15 K) 4.16 ± 0.44; (343.15 K) 4.2 ± 0.44; (353.15 K) 4.24 ± 0.45.

With `ClC(Cl)(Cl)Cl` [tetrachloromethane] + CCCCCCCCn1cc[n+](C)c1C.F[B-](F)(F)F, the activity coefficient by setting is: (313.15 K) 4.11 ± 0.43; (323.15 K) 4.16 ± 0.44; (333.15 K) 4.2 ± 0.44; (343.15 K) 4.23 ± 0.44; (353.15 K) 4.26 ± 0.45.

Take `CC(C)=O` [acetone] + CCCCCCCCn1cc[n+](C)c1C.F[B-](F)(F)F: the activity coefficient is, setting by setting: (313.15 K) 1.38 ± 0.14; (323.15 K) 1.4 ± 0.14; (333.15 K) 1.41 ± 0.15; (343.15 K) 1.42 ± 0.15; (353.15 K) 1.43 ± 0.15.

Regarding `CO` [methanol] + CCCCCCCCn1cc[n+](C)c1C.F[B-](F)(F)F, the activity coefficient reads like this: (313.15 K) 1.57 ± 0.16; (323.15 K) 1.47 ± 0.15; (333.15 K) 1.36 ± 0.14; (343.15 K) 1.26 ± 0.13; (353.15 K) 1.18 ± 0.12.

Take `CCC(C)O` (stereo not given) [butan-2-ol] + CCCCCCCCn1cc[n+](C)c1C.F[B-](F)(F)F: the activity coefficient runs as follows: (313.15 K) 2.93 ± 0.31; (323.15 K) 2.78 ± 0.29; (333.15 K) 2.65 ± 0.28; (343.15 K) 2.51 ± 0.26; (353.15 K) 2.4 ± 0.25.

`Cc1ccccc1` [toluene] + CCCCCCCCn1cc[n+](C)c1C.F[B-](F)(F)F: the activity coefficient is, setting by setting: (313.15 K) 2.84 ± 0.3; (323.15 K) 2.89 ± 0.3; (333.15 K) 2.95 ± 0.31; (343.15 K) 3.02 ± 0.32; (353.15 K) 3.09 ± 0.32.

Take `CCCCC` [pentane] + CCCCCCCCn1cc[n+](C)c1C.F[B-](F)(F)F: the activity coefficient was 15.8 ± 1.7 (313.15 K); 15.3 ± 1.6 (323.15 K); 14.8 ± 1.6 (333.15 K); 14.3 ± 1.5 (343.15 K); 14 ± 1.5 (353.15 K).

As for `Cc1cccc(C)c1` [1,3-dimethylbenzene] + CCCCCCCCn1cc[n+](C)c1C.F[B-](F)(F)F, the activity coefficient (313.15 K) is 4.19 ± 0.44; the activity coefficient (323.15 K) stood at 4.24 ± 0.45; the activity coefficient (333.15 K) was 4.29 ± 0.45; the activity coefficient (343.15 K) worked out at 4.35 ± 0.46; the activity coefficient (353.15 K) turned out to be 4.4 ± 0.46.

With `CCCCCCC` [heptane] + CCCCCCCCn1cc[n+](C)c1C.F[B-](F)(F)F, the activity coefficient runs as follows: (313.15 K) 25.5 ± 2.7; (323.15 K) 25.1 ± 2.6; (333.15 K) 24.7 ± 2.6; (343.15 K) 24.3 ± 2.5; (353.15 K) 23.9 ± 2.5.

For the molecule `CCOC(C)=O` [ethyl acetate] + CCCCCCCCn1cc[n+](C)c1C.F[B-](F)(F)F, the activity coefficient was 2.91 ± 0.31 (313.15 K); 2.96 ± 0.31 (323.15 K); 2.96 ± 0.31 (333.15 K); 2.96 ± 0.31 (343.15 K); 2.96 ± 0.31 (353.15 K).

Take `C1CCOC1` [tetrahydrofuran] + CCCCCCCCn1cc[n+](C)c1C.F[B-](F)(F)F: the activity coefficient reads like this: (313.15 K) 2.06 ± 0.22; (323.15 K) 2.1 ± 0.22; (333.15 K) 2.12 ± 0.22; (343.15 K) 2.13 ± 0.22; (353.15 K) 2.15 ± 0.23.

For the molecule `C1=CCCCC1` [cyclohexene] + CCCCCCCCn1cc[n+](C)c1C.F[B-](F)(F)F, the activity coefficient came to 8.2 ± 0.86 (313.15 K); 8.01 ± 0.84 (323.15 K); 7.81 ± 0.82 (333.15 K); 7.63 ± 0.8 (343.15 K); 7.52 ± 0.79 (353.15 K).

On to `ClCCl` [dichloromethane] + CCCCCCCCn1cc[n+](C)c1C.F[B-](F)(F)F, for which the activity coefficient was 1.08 ± 0.11 (313.15 K); 1.09 ± 0.11 (323.15 K); 1.1 ± 0.11 (333.15 K); 1.1 ± 0.11 (343.15 K); 1.11 ± 0.11 (353.15 K).

Turning to `C1CCCCC1` [cyclohexane] + CCCCCCCCn1cc[n+](C)c1C.F[B-](F)(F)F, the activity coefficient runs as follows: (313.15 K) 12.8 ± 1.4; (323.15 K) 12.5 ± 1.3; (333.15 K) 12.2 ± 1.3; (343.15 K) 11.9 ± 1.2; (353.15 K) 11.5 ± 1.2.

Turning to `CCCO` [propan-1-ol] + CCCCCCCCn1cc[n+](C)c1C.F[B-](F)(F)F, the activity coefficient by setting is: (313.15 K) 2.56 ± 0.27; (323.15 K) 2.39 ± 0.25; (333.15 K) 2.24 ± 0.24; (343.15 K) 2.1 ± 0.22; (353.15 K) 1.97 ± 0.21.

For `CC1CCCCC1` [methylcyclohexane] + CCCCCCCCn1cc[n+](C)c1C.F[B-](F)(F)F, the activity coefficient (313.15 K) worked out at 15.8 ± 1.7; the activity coefficient (323.15 K) turned out to be 15.5 ± 1.6; the activity coefficient (333.15 K) was 15.1 ± 1.6; the activity coefficient (343.15 K) worked out at 14.7 ± 1.6; the activity coefficient (353.15 K) was found to be 14.3 ± 1.5.

As to `CCc1ccccc1` [ethylbenzene] + CCCCCCCCn1cc[n+](C)c1C.F[B-](F)(F)F, the activity coefficient reads like this: (313.15 K) 4.36 ± 0.46; (323.15 K) 4.42 ± 0.46; (333.15 K) 4.46 ± 0.47; (343.15 K) 4.5 ± 0.47; (353.15 K) 4.57 ± 0.48.
